In patent US20230303512A1, “MODULATORS OF MYB-MEDIATED TRANSCRIPTION AND USES THEREOF” (Massachusetts Institute of Technology, priority 2020, published 2023) one finds IC50 data, which are given here for 30 compounds.

One assay has as its system Molt4-5×MRE-FLuc cells. Put plainly: Cell-Titer Glo viability assay, Molt4-5×MRE-FLuc cells. Type of assay: cell-based. The conditions noted are these: 4 hours; read-out: IC50 Cell Titer Glo Molt4-5xMRE-FLuc Viability. The procedure: Molt4-5×MRE-FLuc cells were plated at a density of 10000 cells/well in 25 uL of media in a 384-well plate. The following day, compound analogs were added using a Tecan transfer tool. The plates were incubated for 4 hours, and then the viability was measured using promega Cell-titer glo assay according to the manufacturer's protocols.

In a further assay the test system is endogenous Myb protein. Put plainly: Molt4-5×MRE-FLuc reporter assay. The assay is classed as cell-based. The conditions noted are these: 4 hours, One-Glo, normalized to DMSO; read-out: IC50 Molt4-5xMRE-FLuc Reporter. The procedure:
Molt4 cells were stably transduced with a lentiviral construct encoding a 5×MRE Myb-responsive promoter driving firefly luciferase expression. The reporter output is controlled by the levels/activity of endogenous Myb protein in the Molt4 cell line.
Molt4-5×MRE-FLuc cells were plated at a density of 10000 cells/well in 25 uL of media in a 384-well plate. Compound analogs were added using a Tecan transfer tool to the wells. The plate was incubated for 4 hours, and then firefly luciferase signal measured using promega One-Glo luciferase assay system according to the manufacturer's protocols. The signal was normalized to control wells which were treated with DMSO vehicle.

In the case of `Nc1nc(Cl)cc(N2CCC(NCc3cccc(N4CCCC4)c3)CC2)n1` [KI-TM1-038, 4-Chloro-6-(4-((3-(pyrrolidin-1-yl)benzyl)amino)piperidin-1-yl)pyrimidin-2-amine], the IC50 in the assay with Molt4-5×MRE-FLuc cells and with endogenous Myb protein was greater than 40 µM each time.

With `Cc1cc(N2CCC(NCc3cccc(N(C)C)c3)CC2)nc(N)n1` [KI-TM1-011, 4-(4-((3-(dimethylamino)benzyl)amino)piperidin-1-yl)-6-methylpyrimidin-2-amine], the concentration for half-maximal inhibition (IC50) in the assay with Molt4-5×MRE-FLuc cells and with endogenous Myb protein was greater than 40 µM throughout.

With `Cc1cnc(N)nc1N1CCC(NCc2cccc(N3CCCC3)c2)CC1` [KI-TM1-036, 5-Methyl-4-(4-((3-(pyrrolidin-1-yl)benzyl)amino)piperidin-1-yl)pyrimidin-2-amine], the IC50 is greater than 40 µM in the assay with Molt4-5×MRE-FLuc cells and 24.9 µM in the assay with endogenous Myb protein.

Consider `Cc1cc(N2CCC(N(Cc3cccc(N4CCCC4)c3)C(=O)NC(C)C)CC2)nc(N)n1` [KI-TM1-003, 1-(1-(2-Amino-6-methylpyrimidin-4-yl)piperidin-4-yl)-3-isopropyl-1-(3-(pyrrolidin-1-yl)benzyl)urea], for which the IC50 with Molt4-5×MRE-FLuc cells and in the assay on endogenous Myb protein was greater than 40 µM throughout.

Consider `Cc1cc(N2CCC(NCc3cccc(N4CCCC4)c3)CC2)nc(Cl)n1` [KI-TM1-033, 1-(2-Chloro-6-methylpyrimidin-4-yl)-N-(3-(pyrrolidin-1-yl)benzyl)piperidin-4-amine], for which the IC50 with Molt4-5×MRE-FLuc cells is greater than 40 µM; in the assay with endogenous Myb protein it was 23.5 µM.

In the case of `Cc1cc(N2CCC(NCc3cccc(N4CCCC4)c3)CC2)nc(NCCO)n1` [KI-TM1-037, 2-((4-Methyl-6-(4-((3-(pyrrolidin-1-yl)benzyl)amino)piperidin-1-yl)pyrimidin-2-yl)amino)ethan-1-ol], the IC50 in the assay with Molt4-5×MRE-FLuc cells and in the assay on endogenous Myb protein was greater than 40 µM each time.

Regarding `Cc1cc(N2CCC(NCc3cccc(N4CCOCC4)c3)CC2)nc(N)n1` [KI-TM1-040, 4-Methyl-6-(4-((3-morpholinobenzyl)amino)piperidin-1-yl)pyrimidin-2-amine], the half-maximal inhibitory concentration (IC50) in the assay with Molt4-5×MRE-FLuc cells and in the assay on endogenous Myb protein was greater than 40 µM in each case.

`Cc1cc(N2CCC[C@@H](NCc3cccc(N4CCCC4)c3)C2)nc(N)n1` [KI-TM1-016R, (R)-4-Methyl-6-(3-((3-(pyrrolidin-1-yl)benzyl)amino)piperidin-1-yl)pyrimidin-2-amine]: the half-inhibitory concentration (IC50) in the assay on Molt4-5×MRE-FLuc cells and in the assay on endogenous Myb protein was greater than 40 µM throughout.

Consider `CC(=O)N(Cc1cccc(N2CCCC2)c1)C1CCN(c2cc(C)nc(N)n2)CC1` [KI-TM1-004, N-(1-(2-amino-6-methylpyrimidin-4-yl)piperidin-4-yl)-N-(3-(pyrrolidin-1-yl)benzyl)acetamide], for which the IC50 in the assay with Molt4-5×MRE-FLuc cells and in the assay with endogenous Myb protein was greater than 40 µM throughout.

Consider `Cc1cc(N2CCC(NCc3cccc(C(C)(C)C)c3)CC2)nc(N)n1` [KI-TM1-026, 4-(4-((3-(tert-Butyl)benzyl)amino)piperidin-1-yl)-6-methylpyrimidin-2-amine], for which the half-maximal inhibitory concentration (IC50) in the assay on Molt4-5×MRE-FLuc cells and with endogenous Myb protein was greater than 40 µM each time.

Consider `C#CCCC1(CCN(Cc2cccc(N3CCCC3)c2)C2CCN(c3cc(C)nc(N)n3)CC2)N=N1` [KI-TM1-030, 4-(4-((2-(3-(But-3-yn-1-yl)-3H-diazirin-3-yl)ethyl)(3-(pyrrolidin-1-yl)benzyl)amino)-piperidin-1-yl)-6-methylpyrimidin-2-amine], for which the values for the IC50 with Molt4-5×MRE-FLuc cells and in the assay with endogenous Myb protein were greater than 40 µM and 19.8 µM, respectively.

As to `Cc1cc(N2CCC(N(CCCCCCOCCOCC(=O)Nc3cccc4c3C(=O)N(C3CCC(=O)NC3=O)C4=O)Cc3cccc(N4CCCC4)c3)CC2)nc(N)n1` (stereo not drawn) [KI-TM1-044, 2-(2-((6-((1-(2-Amino-6-methylpyrimidin-4-yl)piperidin-4-yl)(3-(pyrrolidin-1-yl)benzyl)amino)hexyl)oxy)ethoxy)-N-(2-(2,6-dioxopiperidin-3-yl)-1,3-dioxoisoindolin-4-yl)acetamide], the IC50 with Molt4-5×MRE-FLuc cells and with endogenous Myb protein was greater than 40 µM in each case.

For `CCCNC(=O)N(Cc1cccc(N2CCCC2)c1)C1CCN(c2cc(C)nc(N)n2)CC1` [KI-TM1-034, 1-(1-(2-Amino-6-methylpyrimidin-4-yl)piperidin-4-yl)-3-propyl-1-(3-(pyrrolidin-1-yl)benzyl)urea], the half-inhibitory concentration (IC50) in the assay with Molt4-5×MRE-FLuc cells and in the assay on endogenous Myb protein was greater than 40 µM throughout.

Turning to `Cc1cc(N2CCC(N(CCCCCCOCCOCCOCCCCCC(=O)Nc3cccc4c3C(=O)N(C3CCC(=O)NC3=O)C4=O)Cc3cccc(N4CCCC4)c3)CC2)nc(N)n1` (stereo not drawn) [KI-TM1-043, 2-(1-(2-amino-6-methylpyrimidin-4-yl)piperidin-4-yl)-N-(2-(2,6-dioxopiperidin-3-yl)-1,3-dioxoisoindolin-4-yl)-1-(3-(pyrrolidin-1-yl)phenyl)-9,12,15-trioxa-2-azahenicosan-21-amide], the IC50 in the assay with Molt4-5×MRE-FLuc cells and in the assay with endogenous Myb protein was greater than 40 µM in each case.

Take `Cc1cc(N2CCC(NCc3cccc(-n4cccc4)c3)CC2)nc(N)n1` [KI-TM1-010, 4-(4-((3-(1H-pyrrol-1-yl)benzyl)amino)piperidin-1-yl)-6-methylpyrimidin-2-amine]: the half-inhibitory concentration (IC50) was greater than 40 µM in the assay with Molt4-5×MRE-FLuc cells and 21.2 µM in the assay on endogenous Myb protein.

On to `Cc1cc(N2CCC(N(Cc3cccc(N4CCCC4)c3)C(=O)C=COCCOCCOCCN)CC2)nc(N)n1` [KI-TM1-031, N-(1-(2-Amino-6-methylpyrimidin-4-yl)piperidin-4-yl)-3-(2-(2-(2-aminoethoxy)ethoxy)-ethoxy)-N-(3-(pyrrolidin-1-yl)benzyl)propenamide], for which the half-inhibitory concentration (IC50) with Molt4-5×MRE-FLuc cells and with endogenous Myb protein was greater than 40 µM each time.

For the compound `Cc1cc(N2CCC(NCc3cccc(-n4ccnc4)c3)CC2)nc(N)n1` [KI-TM1-014, 4-(4-((3-(1H-imidazol-1-yl)benzyl)amino)piperidin-1-yl)-6-methylpyrimidin-2-amine], the IC50 with Molt4-5×MRE-FLuc cells and in the assay with endogenous Myb protein was greater than 40 µM throughout.

Take `Cc1cc(N2CCC(NCc3cccc(N4CCN(C)CC4)c3)CC2)nc(N)n1` [KI-TM1-039, 4-Methyl-6-(4-((3-(4-methylpiperazin-1-yl)benzyl)amino)piperidin-1-yl)pyrimidin-2-amine]: the IC50 in the assay on Molt4-5×MRE-FLuc cells and in the assay with endogenous Myb protein was greater than 40 µM throughout.

Turning to `Cc1cc(N2CCC[C@H](NCc3cccc(N4CCCC4)c3)C2)nc(N)n1` [KI-TM1-016S, (S)-4-Methyl-6-(3-((3-(pyrrolidin-1-yl)benzyl)amino)piperidin-1-yl)pyrimidin-2-amine], the IC50 with Molt4-5×MRE-FLuc cells was greater than 40 µM; in the assay with endogenous Myb protein, 22.3 µM.

Regarding `Cc1cc(NCCCNCc2cccc(N3CCCC3)c2)nc(N)n1` [KI-TM1-017, 6-Methyl-N^4-(3-((3-(pyrrolidin-1-yl)benzyl)amino)propyl)pyrimidine-2,4-diamine], the half-maximal inhibitory concentration (IC50) with Molt4-5×MRE-FLuc cells and in the assay on endogenous Myb protein was greater than 40 µM in each case.

Take `Cc1cc(N2CCC(NCc3cccc(N4CCCCC4)c3)CC2)nc(N)n1` [KI-TM1-009, 4-methyl-6-(4-((3-(piperidin-1-yl)benzyl)amino)piperidin-1-yl)pyrimidin-2-amine]: the IC50 in the assay with Molt4-5×MRE-FLuc cells is greater than 40 µM; in the assay on endogenous Myb protein it was 23.2 µM.

Consider `CCN(CC)c1ccc(CNC2CCN(c3cc(C)nc(N)n3)CC2)cc1` [KI-TM1-027, 4-(4-((4-(Diethylamino)benzyl)amino)piperidin-1-yl)-6-methylpyrimidin-2-amine], for which the half-maximal inhibitory concentration (IC50) with Molt4-5×MRE-FLuc cells and with endogenous Myb protein was greater than 40 µM in each case.

`Cc1cc(N2CCC(NCc3ccccc3N3CCCC3)CC2)nc(N)n1` [KI-TM1-006, 4-methyl-6-(4-((2-(pyrrolidin-1-yl)benzyl)amino)piperidin-1-yl)pyrimidin-2-amine]: the IC50 in the assay on Molt4-5×MRE-FLuc cells and in the assay on endogenous Myb protein was greater than 40 µM each time.

For `Cc1cc(N2CCCC(N(Cc3cccc(N4CCCC4)c3)C(=O)C=COCCOCCOCCN)C2)nc(N)n1` (stereo not drawn) [KI-TM1-032, N-(1-(2-Amino-6-methylpyrimidin-4-yl)piperidin-3-yl)-3-(2-(2-(2-aminoethoxy)ethoxy)-ethoxy)-N-(3-(pyrrolidin-1-yl)benzyl)propenamide], the half-maximal inhibitory concentration (IC50) with Molt4-5×MRE-FLuc cells and with endogenous Myb protein was greater than 40 µM throughout.

Regarding `COc1cccc(CNC2CCN(c3cc(C)nc(N)n3)CC2)c1` [KI-TM1-012, 4-(4-((3-methoxybenzyl)amino)piperidin-1-yl)-6-methylpyrimidin-2-amine], the IC50 in the assay on Molt4-5×MRE-FLuc cells and with endogenous Myb protein was greater than 40 µM throughout.

As to `Cc1cc(N2CCC(NCc3cccc(CN4CCCC4)c3)CC2)nc(N)n1` [KI-TM1-028, 4-Methyl-6-(4-((3-(pyrrolidin-1-ylmethyl)benzyl)amino)piperidin-1-yl)pyrimidin-2-amine], the IC50 with Molt4-5×MRE-FLuc cells and in the assay with endogenous Myb protein was greater than 40 µM in each case.

For the compound `Cc1cc(N2CCC(NCc3cccc(N4CCCC4)c3)CC2)nc(NCCOCCOCCOCCN)n1` [KI-TM1-041, N-(2-(2-(2-(2-Aminoethoxy)ethoxy)ethoxy)ethyl)-4-methyl-6-(4-((3-(pyrrolidin-1-yl)benzyl)amino)piperidin-1-yl)pyrimidin-2-amine], the IC50 in the assay with Molt4-5×MRE-FLuc cells and in the assay on endogenous Myb protein was greater than 40 µM throughout.

Consider `Cc1cc(N2CCC(NC(=O)c3cccc(N4CCCC4)c3)CC2)nc(N)n1` [KI-TM1-008, N-(1-(2-amino-6-methylpyrimidin-4-yl)piperidin-4-yl)-3-(pyrrolidin-1-yl)benzamide], for which the IC50 with Molt4-5×MRE-FLuc cells and with endogenous Myb protein was greater than 40 µM in each case.

Take `Cc1cc(N2CCC(NCc3ccc(N4CCCC4)cc3)CC2)nc(N)n1` [KI-TM1-007, 4-methyl-6-(4-((4-(pyrrolidin-1-yl)benzyl)amino)piperidin-1-yl)pyrimidin-2-amine]: the IC50 with Molt4-5×MRE-FLuc cells and with endogenous Myb protein was greater than 40 µM in each case.

As for `Cc1cc(N2CCC(NCc3cccc(N4CCCC4)c3)CC2)ncn1` [KI-TM1-019, 1-(6-Methylpyrimidin-4-yl)-N-(3-(pyrrolidin-1-yl)benzyl)piperidin-4-amine], the figures for the IC50 in the assay on Molt4-5×MRE-FLuc cells and in the assay with endogenous Myb protein were greater than 40 µM and 22.1 µM, respectively.
